Laboratory results as given in patent publication US9815842B2, “Pyrazolo pyrimidine derivatives and their use as MALT1 inhibitors” (Novartis AG, priority 2014, dated 2017).
Read-outs that look alike come from different tables or passages of the source.

What was measured:
[1] = biological target: T1, cIAP2-MALT1 fusion protein (Homo sapiens, UniProt Q9UDY8); settings: read-out: NFkappaB reporter gene assay IC50; HEK293 stably expressing cIAP2-MALT1, luciferase, 24 h compound incubation
[2] = biological target: C-domain of MALT1 (amino acids 329-824) (Homo sapiens (Human), UniProt Q9UDY8); experiment: MALT1 biochemical assay (fluorescence lifetime enzyme activity assay); settings: 60 min pre-incubation, 2.5 nM enzyme, 1 μM peptide substrate
[3] = biological target: T1, cIAP2-MALT1 fusion protein; experiment: cell-based
Human IL2 promoter = Human IL2 promoter reporter gene assay (RGA) in Jurkat cells; format: cell-based; settings: Jurkat clone K22 290_H23, anti-CD28 mAb + PMA stimulation 5.5 h
Outline: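 Transfected Jurkat clone K22 290_H23 cells were pre-incubated with compounds 30 min at 37 °C, then stimulated 5.5 h with anti-CD28 mAb (15E8, 3 μg/ml) plus PMA (1 μg/ml). IL2-promoter reporter activity was read as BriteLitePlus bioluminescence.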

Chain of C-domain of MALT1 (amino acids 329-824) (Q9UDY8 329-824): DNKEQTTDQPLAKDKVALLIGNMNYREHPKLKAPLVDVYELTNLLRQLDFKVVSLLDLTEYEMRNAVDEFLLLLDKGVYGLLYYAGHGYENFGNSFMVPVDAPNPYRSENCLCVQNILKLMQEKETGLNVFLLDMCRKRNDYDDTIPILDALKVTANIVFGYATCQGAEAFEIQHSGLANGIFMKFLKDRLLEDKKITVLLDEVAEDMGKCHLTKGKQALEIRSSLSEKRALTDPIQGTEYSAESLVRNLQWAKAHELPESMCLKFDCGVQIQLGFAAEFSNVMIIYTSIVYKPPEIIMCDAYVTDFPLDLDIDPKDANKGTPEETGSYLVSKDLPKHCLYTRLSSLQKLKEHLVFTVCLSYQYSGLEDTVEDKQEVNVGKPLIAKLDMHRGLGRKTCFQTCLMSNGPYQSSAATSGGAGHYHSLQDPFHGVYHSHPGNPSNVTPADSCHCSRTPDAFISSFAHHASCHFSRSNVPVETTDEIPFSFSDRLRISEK
T1 sequence (Q9UDY8 2-824 limits assumed): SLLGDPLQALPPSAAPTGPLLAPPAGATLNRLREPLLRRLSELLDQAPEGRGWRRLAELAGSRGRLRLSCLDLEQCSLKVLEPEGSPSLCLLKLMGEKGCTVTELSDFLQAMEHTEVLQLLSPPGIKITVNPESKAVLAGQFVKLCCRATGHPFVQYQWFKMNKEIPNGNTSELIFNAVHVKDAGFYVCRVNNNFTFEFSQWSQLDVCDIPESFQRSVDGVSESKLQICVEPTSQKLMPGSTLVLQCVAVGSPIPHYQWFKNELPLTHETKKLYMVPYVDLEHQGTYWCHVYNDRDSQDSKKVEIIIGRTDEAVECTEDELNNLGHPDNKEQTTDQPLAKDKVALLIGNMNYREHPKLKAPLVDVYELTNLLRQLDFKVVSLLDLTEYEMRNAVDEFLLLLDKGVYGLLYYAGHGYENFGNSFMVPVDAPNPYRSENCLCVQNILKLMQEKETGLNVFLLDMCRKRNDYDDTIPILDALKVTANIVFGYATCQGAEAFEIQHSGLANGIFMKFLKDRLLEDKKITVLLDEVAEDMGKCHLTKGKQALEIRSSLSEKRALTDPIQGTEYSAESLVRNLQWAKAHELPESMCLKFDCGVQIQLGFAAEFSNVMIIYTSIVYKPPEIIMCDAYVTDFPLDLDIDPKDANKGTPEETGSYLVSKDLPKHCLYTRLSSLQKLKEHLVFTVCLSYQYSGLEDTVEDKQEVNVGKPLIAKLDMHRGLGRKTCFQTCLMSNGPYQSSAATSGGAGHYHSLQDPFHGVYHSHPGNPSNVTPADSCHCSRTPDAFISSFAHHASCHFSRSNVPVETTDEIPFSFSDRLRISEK

| SMILES | IC50 [1] [nM] | IC50 [2] [nM] | IC50 [3] [nM] | IC50 (Human IL2 promoter) [nM] |
| --- | --- | --- | --- | --- |
| CC1(c2c(NC(=O)Nc3cnc(-n4nccn4)c(Cl)c3)cnc3cc(Cl)nn23)CC1 [Example 16, 1-(5-chloro-6-(2H-1,2,3-triazol-2-yl)pyridin-3-yl)-3-(2-chloro-7-(1-methylcyclopropyl)pyrazolo[1,5-a]pyrimidin-6-yl)urea] | 35 | – | – | – |
| CC(C)c1c(NC(=O)Nc2cc(Cl)c(=O)n(C)c2-n2cccn2)cnc2cc(Cl)nn12 [Example 24, 1-(5-chloro-1-methyl-6-oxo-2-(1H-pyrazol-1-yl)-1,6-dihydropyridin-3-yl)-3-(2-chloro-7-isopropylpyrazolo[1,5-a]pyrimidin-6-yl)urea] | – | 5 | 131 | 214 |
| CC(C)c1c(NC(=O)Nc2cncc(Br)c2)cnc2cc(Cl)nn12 [Example 26, 1-(5-bromopyridin-3-yl)-3-(2-chloro-7-isopropylpyrazolo[1,5-a]pyrimidin-6-yl)urea] | – | 5 | 85 | 134 |
| CC(C)c1c(NC(=O)Nc2cnc(N3CCCS3(=O)=O)c(C(F)(F)F)c2)cnc2cc(Cl)nn12 [Example 27, 1-(2-chloro-7-isopropylpyrazolo[1,5-a]pyrimidin-6-yl)-3-(6-(1,1-dioxidoisothiazolidin-2-yl)-5-(trifluoromethyl)pyridin-3-yl)urea] | – | 6 | 54 | 248 |
| CC(C)c1c(NC(=O)Nc2cc(Cl)c(-n3nccn3)c(Cl)c2)cnc2cc(Cl)nn12 [Example 30, 1-(2-chloro-7-isopropylpyrazolo[1,5-a]pyrimidin-6-yl)-3-(3,5-dichloro-4-(2H-1,2,3-triazol-2-yl)phenyl)urea] | – | 3 | 382 | 507 |
| CC(C)c1c(NC(=O)Nc2cc(C(F)(F)F)cn(C)c2=O)cnc2cc(Cl)nn12 [Example 32, 1-(2-chloro-7-isopropylpyrazolo[1,5-a]pyrimidin-6-yl)-3-(1-methyl-2-oxo-5-(trifluoromethyl)-1,2-dihydropyridin-3-yl)urea] | – | 19 | 214 | 221 |
| O=C(Nc1cnc(-n2nccn2)c(Cl)c1)Nc1cnc2cc(Cl)nn2c1C1CCC1 [Example 38, 1-(5-chloro-6-(2H-1,2,3-triazol-2-yl)pyridin-3-yl)-3-(2-chloro-7-cyclobutylpyrazolo[1,5-a]pyrimidin-6-yl)urea] | – | 5 | 176 | 145 |
| COCCO[C@@H](C)c1c(NC(=O)Nc2cnc(OC)c(Cl)c2)cnc2cc(Cl)nn12 [Example 40, (S)-1-(5-chloro-6-methoxypyridin-3-yl)-3-(2-chloro-7-(1-(2-methoxyethoxy)ethyl)pyrazolo[1,5-a]pyrimidin-6-yl)urea] | – | 6 | 112 | 43 |
| COCCO[C@@H](C)c1c(NC(=O)Nc2ccnc(C(F)(F)F)c2)cnc2cc(Cl)nn12 [Example 41, (S)-1-(2-chloro-7-(1-(2-methoxyethoxy)ethyl)pyrazolo[1,5-a]pyrimidin-6-yl)-3-(2-(trifluoromethyl)pyridin-4-yl)urea] | 356 | – | – | – |
| O=C(Nc1cnc(-n2nccn2)c(Cl)c1)Nc1cnc2cc(Cl)nn2c1C1COCCO1 (stereo not shown) [Example 43, 1-(5-chloro-6-(2H-1,2,3-triazol-2-yl)pyridin-3-yl)-3-(2-chloro-7-(1,4-dioxan-2-yl)pyrazolo[1,5-a]pyrimidin-6-yl)urea] | 159 | – | – | – |
| COCC1(c2c(NC(=O)Nc3ccnc(C(F)(F)F)c3)cnc3cc(Cl)nn23)CCC1 [Example 51, 1-(2-chloro-7-(1-(methoxymethyl)cyclobutyl)pyrazolo[1,5-a]pyrimidin-6-yl)-3-(2-(trifluoromethyl)pyridin-4-yl)urea] | 195 | – | – | – |
| COCC(OC)c1c(NC(=O)Nc2cnc(-n3nccn3)c(Cl)c2)cnc2cc(Cl)nn12 (stereo not shown) [Example 56, 1-(5-chloro-6-(2H-1,2,3-triazol-2-yl)pyridin-3-yl)-3-(2-chloro-7-(1,2-dimethoxyethyl)pyrazolo[1,5-a]pyrimidin-6-yl)urea] | – | 5 | 131 | 95 |
| Cc1c(NC(=O)Nc2cnc(-n3nccn3)c(Cl)c2)cnc2cc(Cl)nn12 [Example 62, 1-(5-chloro-6-(2H-1,2,3-triazol-2-yl)pyridin-3-yl)-3-(2-chloro-7-methylpyrazolo[1,5-a]pyrimidin-6-yl)urea] | – | 42 | 345 | 266 |
| CO[C@@H](C)c1c(NC(=O)Nc2cnc(-n3nccn3)c(Cl)c2)cnc2cc(C)nn12 [Example 71, (S)-1-(5-chloro-6-(2H-1,2,3-triazol-2-yl)pyridin-3-yl)-3-(7-(1-methoxyethyl)-2-methylpyrazolo[1,5-a]pyrimidin-6-yl)urea] | – | 5 | 79 | 14 |
| Cc1cc2ncc(NC(=O)Nc3cnc(-n4nccn4)c(Cl)c3)c(C3(C)CC3)n2n1 [Example 72, 1-(5-chloro-6-(2H-1,2,3-triazol-2-yl)pyridin-3-yl)-3-(2-methyl-7-(1-methylcyclopropyl)pyrazolo[1,5-a]pyrimidin-6-yl)urea] | – | 3 | 179 | 140 |
| COc1ncc(NC(=O)Nc2cnc3cc(C)nn3c2C2(C)CC2)cc1Cl [Example 73, 1-(5-chloro-6-methoxypyridin-3-yl)-3-(2-methyl-7-(1-methylcyclopropyl)pyrazolo[1,5-a]pyrimidin-6-yl)urea] | – | 12 | 163 | 91 |
| CO[C@H](c1c(NC(=O)Nc2cnc(-n3nccn3)c(Cl)c2)cnc2cc(Cl)nn12)C(C)C [Example 74, (S)-1-(5-chloro-6-(2H-1,2,3-triazol-2-yl)pyridin-3-yl)-3-(2-chloro-7-(1-methoxy-2-methylpropyl)pyrazolo[1,5-a]pyrimidin-6-yl)urea] | – | 2 | 30 | 32 |
| CO[C@H](c1c(NC(=O)Nc2ccnc(C(F)(F)F)c2)cnc2cc(Cl)nn12)C(C)C [Example 75, (S)-1-(2-chloro-7-(1-methoxy-2-methylpropyl)pyrazolo[1,5-a]pyrimidin-6-yl)-3-(2-(trifluoromethyl)pyridin-4-yl)urea] | – | 5 | 100 | 72 |
| COCC1(c2c(NC(=O)Nc3cnc(-n4nccn4)c(Cl)c3)cnc3cc(Cl)nn23)CC1 [Example 76, 1-(5-chloro-6-(2H-1,2,3-triazol-2-yl)pyridin-3-yl)-3-(2-chloro-7-(1-(methoxymethyl)cyclopropyl)pyrazolo[1,5-a]pyrimidin-6-yl)urea] | – | 6 | 84 | 28 |
| COCC1(c2c(NC(=O)Nc3cnc(-n4nccn4)c(Cl)c3)cnc3cc(C)nn23)CC1 [Example 78, 1-(5-chloro-6-(2H-1,2,3-triazol-2-yl)pyridin-3-yl)-3-(7-(1-(methoxymethyl)cyclopropyl)-2-methylpyrazolo[1,5-a]pyrimidin-6-yl)urea] | – | 21 | 159 | 76 |
| COCC1(c2c(NC(=O)Nc3ccnc(C(F)(F)F)c3)cnc3cc(C)nn23)CC1 [Example 79, 1-(7-(1-(methoxymethyl)cyclopropyl)-2-methylpyrazolo[1,5-a]pyrimidin-6-yl)-3-(2-(trifluoromethyl)pyridin-4-yl)urea] | – | 45 | 408 | 206 |
| COCC(C)(OC)c1c(NC(=O)Nc2cnc(-n3nccn3)c(Cl)c2)cnc2cc(Cl)nn12 (stereo not shown) [Example 81, 1-(5-chloro-6-(2H-1,2,3-triazol-2-yl)pyridin-3-yl)-3-(2-chloro-7-(1,2-dimethoxypropan-2-y)pyrazolo[1,5-a]pyrimidin-6-yl)urea] | – | 5 | 95 | 63 |
| CN(C)C1(c2c(NC(=O)Nc3cnc(-n4nccn4)c(Cl)c3)cnc3cc(Cl)nn23)CC1 [Example 88, 1-(5-chloro-6-(2H-1,2,3-triazol-2-yl)pyridin-3-yl)-3-(2-chloro-7-(1-(dimethylamino)cyclopropyl)pyrazolo[1,5-a]pyrimidin-6-yl)urea] | – | 14 | 102 | 47 |
| COC(c1c(NC(=O)Nc2ccnc(C(F)(F)F)c2)cnc2cc(Cl)nn12)C1CCOCC1 (stereo not shown) [Example 90, 1-(2-chloro-7-(methoxy(tetrahydro-2H-pyran-4-yl)methyl)pyrazolo[1,5-a]pyrimidin-6-yl)-3-(2-(trifluoromethyl)pyridin-4-yl)urea] | – | 97 | 696 | 927 |
| COCC1(c2c(NC(=O)Nc3cnc(-n4nccn4)c(Cl)c3)cnc3cc(Cl)nn23)CCCO1 (stereo not shown) [Example 91, 1-(5-chloro-6-(2H-1,2,3-triazol-2-yl)pyridin-3-yl)-3-(2-chloro-7-(2-(methoxymethyl)tetrahydrofuran-2-yl)pyrazolo[1,5-a]pyrimidin-6-yl)urea] | – | 2 | 105 | 89 |
| CC(C)c1c(NC(=O)Nc2cnc(-n3cc(CN)cn3)c(Cl)c2)cnc2cc(Cl)nn12 [Example 118, 1-(6-(4-(aminomethyl)-1H-pyrazol-1-yl)-5-chloropyridin-3-yl)-3-(2-chloro-7-isopropylpyrazolo[1,5-a]pyrimidin-6-yl)urea] | – | 28 | 256 | 112 |
| COC[C@H](OC)c1c(NC(=O)Nc2cnc(-n3nccn3)c(Cl)c2)cnc2cc(Cl)nn12 [Example 126, (R)-1-(5-chloro-6-(2H-1,2,3-triazol-2-yl)pyridin-3-yl)-3-(2-chloro-7-(1,2-dimethoxyethyl)pyrazolo[1,5-a]pyrimidin-6-yl)urea] | – | 5 | 119 | 58 |
